{
  "source": "ChEMBL document CHEMBL1201862",
  "about": "“PubChem BioAssay data set” (2004)",
  "key": {"[1]": {"molecular_target": "Voltage-dependent T-type calcium channel subunit alpha-1H (Homo sapiens, UniProt O95180)", "type": "functional"}, "[2]": {"molecular_target": "Multidrug resistance protein CDR1 (Candida albicans, UniProt P43071)", "test": "CaCDR1 efflux pump inhibitors in yeast, dose response, S. cerevisiae AD1-8u, singleplex, Cherry Pick1 hits (AID 588606)", "type": "functional"}, "Insulin-degrading enzyme [3]": {"molecular_target": "T1, Insulin-degrading enzyme (Homo sapiens, UniProt P14735)", "T1 sequence (P14735 whole entry)": "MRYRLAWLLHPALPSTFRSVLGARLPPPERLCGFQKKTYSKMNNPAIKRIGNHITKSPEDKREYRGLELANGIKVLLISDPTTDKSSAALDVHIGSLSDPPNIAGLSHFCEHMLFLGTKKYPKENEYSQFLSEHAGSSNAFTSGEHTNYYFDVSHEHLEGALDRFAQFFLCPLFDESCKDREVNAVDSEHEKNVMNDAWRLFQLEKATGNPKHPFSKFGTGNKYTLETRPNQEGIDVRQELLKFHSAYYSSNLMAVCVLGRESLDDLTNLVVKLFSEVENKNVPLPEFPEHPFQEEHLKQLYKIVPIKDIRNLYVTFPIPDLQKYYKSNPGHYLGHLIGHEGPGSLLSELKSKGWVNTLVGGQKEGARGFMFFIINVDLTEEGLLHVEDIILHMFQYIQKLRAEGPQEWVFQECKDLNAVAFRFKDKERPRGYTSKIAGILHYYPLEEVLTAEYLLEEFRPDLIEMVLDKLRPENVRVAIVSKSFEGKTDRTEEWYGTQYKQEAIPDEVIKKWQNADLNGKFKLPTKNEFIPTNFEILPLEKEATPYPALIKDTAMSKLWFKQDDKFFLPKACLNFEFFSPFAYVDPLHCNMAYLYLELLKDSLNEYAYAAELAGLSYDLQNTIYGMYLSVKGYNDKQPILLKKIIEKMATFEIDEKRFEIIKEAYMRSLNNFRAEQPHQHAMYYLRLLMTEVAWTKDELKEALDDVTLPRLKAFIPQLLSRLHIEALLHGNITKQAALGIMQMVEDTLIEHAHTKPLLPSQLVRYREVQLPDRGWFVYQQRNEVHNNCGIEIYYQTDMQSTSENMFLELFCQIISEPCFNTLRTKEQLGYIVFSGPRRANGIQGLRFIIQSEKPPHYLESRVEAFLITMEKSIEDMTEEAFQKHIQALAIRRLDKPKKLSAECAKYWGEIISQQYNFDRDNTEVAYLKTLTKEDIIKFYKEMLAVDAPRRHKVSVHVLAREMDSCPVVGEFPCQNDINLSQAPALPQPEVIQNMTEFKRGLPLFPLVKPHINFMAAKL", "test": "activators of endogenous IDE in HEK cells, dose response, cell-based, fluorescence polarization (AID 588439)", "type": "functional"}, "HEK293 [4]": {"test_system": "HEK293", "test": "optical interference in Abeta FP readout, dose response, artefact control for IDE activator project, biochemical, fluorescence polarization (AID 588442)", "type": "functional, cell-based", "conditions": "Homo sapiens"}, "Insulin-degrading enzyme [5]": {"molecular_target": "T1, Insulin-degrading enzyme", "test": "activators of recombinant IDE enzyme, dose response, counter-screen for IDE activator project, biochemical, fluorescence polarization (AID 588681)"}, "HEK293 [6]": {"test_system": "HEK293", "test": "HEK cell cytotoxicity by LDH release, dose response, cytotoxicity control for IDE activator project, fluorescence, HEK cells (AID 588440);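 also: cytotoxicity by LDH release measuring loss of membrane integrity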", "type": "functional, cell-based", "conditions": "Homo sapiens"}, "[7]": {"molecular_target": "Protein disulfide-isomerase (Homo sapiens, UniProt P07237)", "sequence (P07237 whole entry)": "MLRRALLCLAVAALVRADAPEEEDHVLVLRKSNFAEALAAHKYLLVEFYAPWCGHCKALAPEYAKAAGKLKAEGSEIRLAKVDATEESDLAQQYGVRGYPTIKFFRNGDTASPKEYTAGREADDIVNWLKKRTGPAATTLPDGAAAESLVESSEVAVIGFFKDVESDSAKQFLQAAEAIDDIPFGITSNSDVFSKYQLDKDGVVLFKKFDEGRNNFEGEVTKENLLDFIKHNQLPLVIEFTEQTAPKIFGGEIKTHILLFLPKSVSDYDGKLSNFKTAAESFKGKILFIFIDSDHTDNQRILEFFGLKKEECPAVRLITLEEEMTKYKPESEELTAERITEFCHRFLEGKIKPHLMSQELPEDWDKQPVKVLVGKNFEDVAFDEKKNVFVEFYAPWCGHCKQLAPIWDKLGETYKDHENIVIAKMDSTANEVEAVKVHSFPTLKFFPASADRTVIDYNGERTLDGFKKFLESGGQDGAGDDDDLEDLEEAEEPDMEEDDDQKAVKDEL", "test": "PDI inhibitors, insulin aggregation turbidity, dose response, biochemical, absorbance, cherry-picked samples (AID 602350)", "type": "functional"}, "Beta-lactamase [8]": {"molecular_target": "Beta-lactamase (Pseudomonas aeruginosa, UniProt Q79MP6)"}, "Prothrombin": {"molecular_target": "Prothrombin (Bos taurus, UniProt P00735)", "test": "thrombin inhibition, dose response, biochemical, fluorescence polarization, uHTS hits (AID 602369)", "type": "functional"}, "[9]": {"molecular_target": "72 kDa type IV collagenase (Homo sapiens, UniProt P08253)", "sequence (P08253 whole entry)": "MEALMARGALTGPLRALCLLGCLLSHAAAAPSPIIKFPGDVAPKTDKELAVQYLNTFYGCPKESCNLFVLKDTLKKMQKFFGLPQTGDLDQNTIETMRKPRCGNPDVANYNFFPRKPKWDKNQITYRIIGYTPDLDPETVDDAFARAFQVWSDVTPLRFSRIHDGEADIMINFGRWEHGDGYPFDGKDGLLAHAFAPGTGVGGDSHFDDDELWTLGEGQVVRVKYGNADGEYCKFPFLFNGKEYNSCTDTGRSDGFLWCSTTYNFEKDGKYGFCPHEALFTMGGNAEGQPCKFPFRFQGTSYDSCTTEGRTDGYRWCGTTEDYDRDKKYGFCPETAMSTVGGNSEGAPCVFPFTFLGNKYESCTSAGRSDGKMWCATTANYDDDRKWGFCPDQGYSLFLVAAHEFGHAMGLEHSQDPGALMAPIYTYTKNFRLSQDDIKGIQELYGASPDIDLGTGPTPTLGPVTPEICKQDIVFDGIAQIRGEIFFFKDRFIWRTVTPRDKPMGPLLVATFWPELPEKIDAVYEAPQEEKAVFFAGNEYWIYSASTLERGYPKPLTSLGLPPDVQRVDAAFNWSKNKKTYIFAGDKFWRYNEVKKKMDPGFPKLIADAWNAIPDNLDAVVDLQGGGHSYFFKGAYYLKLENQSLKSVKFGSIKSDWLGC", "test": "Dose Response validation of uHTS RPN11 inhibitor hits using a MMP-2 Fluorescence assay.", "type": "functional"}, "[10]": {"molecular_target": "26S proteasome non-ATPase regulatory subunit 14 (Homo sapiens, UniProt O00487)", "sequence (O00487 whole entry)": "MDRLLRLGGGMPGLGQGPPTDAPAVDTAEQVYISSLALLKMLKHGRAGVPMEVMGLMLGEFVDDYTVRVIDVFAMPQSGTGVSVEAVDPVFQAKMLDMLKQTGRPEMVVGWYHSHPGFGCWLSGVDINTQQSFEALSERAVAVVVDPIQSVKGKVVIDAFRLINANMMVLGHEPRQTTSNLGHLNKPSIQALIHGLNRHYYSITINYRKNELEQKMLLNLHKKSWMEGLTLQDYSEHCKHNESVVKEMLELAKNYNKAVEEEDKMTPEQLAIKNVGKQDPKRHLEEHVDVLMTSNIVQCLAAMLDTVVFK", "test": "inhibition of proteasome subunit RPN11 – biochemical, fluorescence polarization, uHTS hits, confirmation (AID 602368)", "type": "functional"}, "[11]": {"test": "Luminescence Cell-Based Dose Confirmation HTS to Identify Inhibitors of Polyadenylation.", "type": "functional"}, "[12]": {"test": "polyadenylation inhibitors in yeast reporter, dose response, luminescence, S. cerevisiae SKY197-pL101 (AID 2525)", "type": "functional, cell-based"}, "Beta-lactamase [13]": {"molecular_target": "Beta-lactamase (Salmonella choleraesuis (strain SC-B67), UniProt Q5J463)", "sequence (Q5J463 whole entry)": "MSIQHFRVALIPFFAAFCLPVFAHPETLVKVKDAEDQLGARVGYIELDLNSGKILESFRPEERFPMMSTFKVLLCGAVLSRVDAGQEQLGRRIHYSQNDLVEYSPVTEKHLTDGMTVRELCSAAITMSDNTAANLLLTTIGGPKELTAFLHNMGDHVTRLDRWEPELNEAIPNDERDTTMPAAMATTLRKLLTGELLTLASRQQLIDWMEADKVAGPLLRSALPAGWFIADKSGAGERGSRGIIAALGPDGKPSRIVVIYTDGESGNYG"}, "[14]": {"test": "viability loss in Mcl1-dependent HMC-1-8 cells, dose response, selectivity assay for A1 inhibitor project, cell-based, luminescence, dry powder (AID 504415)", "type": "functional", "conditions": "Homo sapiens"}, "[15]": {"molecular_target": "DNA dC->dU-editing enzyme APOBEC-3A (Homo sapiens, UniProt P31941)", "sequence (P31941 whole entry)": "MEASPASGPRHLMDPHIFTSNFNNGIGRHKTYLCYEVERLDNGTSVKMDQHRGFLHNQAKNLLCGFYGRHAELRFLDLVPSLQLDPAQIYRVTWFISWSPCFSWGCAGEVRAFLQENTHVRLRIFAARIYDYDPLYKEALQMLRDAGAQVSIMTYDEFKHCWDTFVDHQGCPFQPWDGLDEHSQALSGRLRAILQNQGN", "test": "SAR analysis of small molecule inhibitors of APOBEC3A DNA Deaminase via a fluorescence-based single-stranded DNA deaminase assay.", "type": "functional", "conditions": "read-out: IC50_Mean"}, "[16]": {"molecular_target": "DNA dC->dU-editing enzyme APOBEC-3G (Homo sapiens, UniProt Q9HC16)", "test": "APOBEC3G deaminase inhibitors, SAR follow-up, biochemical, fluorescence, single-stranded DNA substrate (AID 602136)", "type": "functional", "conditions": "read-out: IC50_Mean"}, "[17]": {"molecular_target": "T2, Apoptotic protease-activating factor 1 (Homo sapiens, UniProt O14727)", "T2 sequence (O14727 whole entry)": "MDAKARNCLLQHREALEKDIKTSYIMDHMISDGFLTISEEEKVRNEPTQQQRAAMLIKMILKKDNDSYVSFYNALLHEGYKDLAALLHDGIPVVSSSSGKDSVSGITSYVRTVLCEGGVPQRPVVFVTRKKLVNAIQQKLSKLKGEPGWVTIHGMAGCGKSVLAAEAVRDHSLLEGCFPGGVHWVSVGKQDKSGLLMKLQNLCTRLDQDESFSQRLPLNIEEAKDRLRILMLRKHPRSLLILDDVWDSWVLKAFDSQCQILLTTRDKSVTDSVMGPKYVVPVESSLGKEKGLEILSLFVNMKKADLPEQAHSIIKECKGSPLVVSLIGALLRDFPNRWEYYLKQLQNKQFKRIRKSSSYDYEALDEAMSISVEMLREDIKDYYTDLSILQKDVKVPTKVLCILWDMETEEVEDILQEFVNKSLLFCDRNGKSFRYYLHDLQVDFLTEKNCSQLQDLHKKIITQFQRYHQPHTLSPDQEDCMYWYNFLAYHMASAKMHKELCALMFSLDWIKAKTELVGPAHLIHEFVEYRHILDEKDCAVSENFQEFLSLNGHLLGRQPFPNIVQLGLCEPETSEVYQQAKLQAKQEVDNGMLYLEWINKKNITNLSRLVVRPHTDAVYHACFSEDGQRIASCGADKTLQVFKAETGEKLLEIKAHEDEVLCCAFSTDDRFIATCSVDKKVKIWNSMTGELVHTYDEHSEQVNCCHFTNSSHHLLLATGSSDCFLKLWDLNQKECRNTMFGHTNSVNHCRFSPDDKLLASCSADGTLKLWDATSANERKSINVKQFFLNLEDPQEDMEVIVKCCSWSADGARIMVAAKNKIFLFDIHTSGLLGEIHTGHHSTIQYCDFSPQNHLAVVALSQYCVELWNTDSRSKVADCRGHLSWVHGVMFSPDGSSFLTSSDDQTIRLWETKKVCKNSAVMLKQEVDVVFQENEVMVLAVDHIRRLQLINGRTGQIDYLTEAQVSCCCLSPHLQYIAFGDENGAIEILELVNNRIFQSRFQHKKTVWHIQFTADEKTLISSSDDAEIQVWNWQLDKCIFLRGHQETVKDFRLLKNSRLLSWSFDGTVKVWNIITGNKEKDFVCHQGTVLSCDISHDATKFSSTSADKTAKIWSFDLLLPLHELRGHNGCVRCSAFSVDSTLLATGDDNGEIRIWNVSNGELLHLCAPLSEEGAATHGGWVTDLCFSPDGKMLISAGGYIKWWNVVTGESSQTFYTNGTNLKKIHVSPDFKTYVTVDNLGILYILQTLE", "test": "SAR analysis of small molecule inhibitors of Apaf-1 in a Fluorescent assay.", "type": "functional", "conditions": "read-out: IC50_Mean"}, "[18]": {"molecular_target": "Mitogen-activated protein kinase 14 (Homo sapiens, UniProt Q16539)", "sequence (Q16539 whole entry)": "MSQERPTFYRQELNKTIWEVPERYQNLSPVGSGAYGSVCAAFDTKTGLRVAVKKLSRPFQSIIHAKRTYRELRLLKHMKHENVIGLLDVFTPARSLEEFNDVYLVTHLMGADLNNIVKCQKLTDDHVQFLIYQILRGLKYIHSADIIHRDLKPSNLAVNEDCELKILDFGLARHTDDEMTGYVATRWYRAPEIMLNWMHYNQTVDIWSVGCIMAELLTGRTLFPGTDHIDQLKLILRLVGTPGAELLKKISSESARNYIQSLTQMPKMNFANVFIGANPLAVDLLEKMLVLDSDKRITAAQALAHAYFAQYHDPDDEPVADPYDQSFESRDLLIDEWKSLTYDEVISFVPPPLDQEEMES", "type": "functional"}, "[19]": {"molecular_target": "Tyrosine-protein kinase BTK (Homo sapiens, UniProt Q06187)", "sequence (Q06187 whole entry)": "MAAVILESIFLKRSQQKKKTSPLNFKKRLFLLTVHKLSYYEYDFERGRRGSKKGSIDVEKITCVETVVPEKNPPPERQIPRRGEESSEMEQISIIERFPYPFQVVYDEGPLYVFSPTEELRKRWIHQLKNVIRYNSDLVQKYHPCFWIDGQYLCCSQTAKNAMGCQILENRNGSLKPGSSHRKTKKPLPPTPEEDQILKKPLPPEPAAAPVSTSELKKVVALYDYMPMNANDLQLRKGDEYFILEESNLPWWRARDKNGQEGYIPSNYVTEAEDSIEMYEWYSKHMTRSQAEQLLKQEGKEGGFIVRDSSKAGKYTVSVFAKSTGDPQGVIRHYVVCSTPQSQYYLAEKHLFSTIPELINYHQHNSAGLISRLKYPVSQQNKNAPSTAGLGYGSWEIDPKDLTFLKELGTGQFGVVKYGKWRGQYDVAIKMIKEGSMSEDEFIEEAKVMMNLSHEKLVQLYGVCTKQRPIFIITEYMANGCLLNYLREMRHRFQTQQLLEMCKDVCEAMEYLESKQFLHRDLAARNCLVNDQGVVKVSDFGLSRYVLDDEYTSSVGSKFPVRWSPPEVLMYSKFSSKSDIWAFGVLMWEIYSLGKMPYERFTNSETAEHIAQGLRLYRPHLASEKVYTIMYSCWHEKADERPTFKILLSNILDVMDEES", "type": "functional"}, "[20]": {"molecular_target": "ALK tyrosine kinase receptor (Homo sapiens, UniProt Q9UM73)", "type": "functional"}, "[21]": {"molecular_target": "Calcium/calmodulin-dependent protein kinase type II subunit alpha (Homo sapiens, UniProt Q9UQM7)", "sequence (Q9UQM7 whole entry)": "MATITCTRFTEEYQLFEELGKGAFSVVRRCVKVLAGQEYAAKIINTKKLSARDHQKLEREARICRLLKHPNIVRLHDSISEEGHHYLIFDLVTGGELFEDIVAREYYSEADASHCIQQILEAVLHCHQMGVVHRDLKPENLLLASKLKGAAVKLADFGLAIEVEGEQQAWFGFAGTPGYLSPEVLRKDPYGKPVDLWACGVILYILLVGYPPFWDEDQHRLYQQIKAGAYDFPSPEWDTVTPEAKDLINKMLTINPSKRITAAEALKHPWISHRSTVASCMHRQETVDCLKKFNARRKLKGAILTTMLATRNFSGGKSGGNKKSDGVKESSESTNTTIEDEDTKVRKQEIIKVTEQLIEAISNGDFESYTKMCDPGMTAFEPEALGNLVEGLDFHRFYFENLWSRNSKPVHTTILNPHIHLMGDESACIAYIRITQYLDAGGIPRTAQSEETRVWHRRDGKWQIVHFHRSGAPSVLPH", "test": "Navigating the Kinome. Panel member name: CAMK2A", "type": "functional"}, "[22]": {"molecular_target": "Tyrosine-protein kinase Fyn (Homo sapiens, UniProt P06241)", "type": "functional"}, "[23]": {"molecular_target": "T3, Serine/threonine-protein kinase TAO1 (Homo sapiens, UniProt Q7L7X3)", "T3 sequence (Q7L7X3 whole entry)": "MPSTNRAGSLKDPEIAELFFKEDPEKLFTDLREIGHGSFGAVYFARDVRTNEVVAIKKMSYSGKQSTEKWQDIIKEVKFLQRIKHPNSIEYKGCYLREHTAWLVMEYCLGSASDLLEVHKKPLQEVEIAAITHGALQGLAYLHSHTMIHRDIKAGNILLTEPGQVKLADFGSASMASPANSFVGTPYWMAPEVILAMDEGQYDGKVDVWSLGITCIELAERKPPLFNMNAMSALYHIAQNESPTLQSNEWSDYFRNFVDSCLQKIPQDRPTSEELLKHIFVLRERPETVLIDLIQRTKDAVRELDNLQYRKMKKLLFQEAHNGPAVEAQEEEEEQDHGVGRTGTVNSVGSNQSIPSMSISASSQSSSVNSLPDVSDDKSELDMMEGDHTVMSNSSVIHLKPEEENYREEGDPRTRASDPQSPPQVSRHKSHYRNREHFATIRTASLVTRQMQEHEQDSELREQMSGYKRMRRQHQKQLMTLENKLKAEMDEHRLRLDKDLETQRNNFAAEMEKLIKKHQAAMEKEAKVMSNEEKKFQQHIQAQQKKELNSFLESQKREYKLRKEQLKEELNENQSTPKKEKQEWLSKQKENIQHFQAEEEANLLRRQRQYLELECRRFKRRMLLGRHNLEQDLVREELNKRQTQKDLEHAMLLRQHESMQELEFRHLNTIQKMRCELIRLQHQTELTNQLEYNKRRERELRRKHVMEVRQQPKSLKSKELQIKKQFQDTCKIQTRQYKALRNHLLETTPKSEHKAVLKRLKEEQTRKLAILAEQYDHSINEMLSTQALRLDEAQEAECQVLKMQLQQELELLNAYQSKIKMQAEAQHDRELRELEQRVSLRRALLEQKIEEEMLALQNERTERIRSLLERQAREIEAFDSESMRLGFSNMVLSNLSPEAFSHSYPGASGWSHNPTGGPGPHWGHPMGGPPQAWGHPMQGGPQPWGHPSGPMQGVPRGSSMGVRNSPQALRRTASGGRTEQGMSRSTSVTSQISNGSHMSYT", "type": "functional"}, "[24]": {"molecular_target": "Tyrosine-protein kinase Lck (Homo sapiens, UniProt P06239)", "sequence (P06239 whole entry)": "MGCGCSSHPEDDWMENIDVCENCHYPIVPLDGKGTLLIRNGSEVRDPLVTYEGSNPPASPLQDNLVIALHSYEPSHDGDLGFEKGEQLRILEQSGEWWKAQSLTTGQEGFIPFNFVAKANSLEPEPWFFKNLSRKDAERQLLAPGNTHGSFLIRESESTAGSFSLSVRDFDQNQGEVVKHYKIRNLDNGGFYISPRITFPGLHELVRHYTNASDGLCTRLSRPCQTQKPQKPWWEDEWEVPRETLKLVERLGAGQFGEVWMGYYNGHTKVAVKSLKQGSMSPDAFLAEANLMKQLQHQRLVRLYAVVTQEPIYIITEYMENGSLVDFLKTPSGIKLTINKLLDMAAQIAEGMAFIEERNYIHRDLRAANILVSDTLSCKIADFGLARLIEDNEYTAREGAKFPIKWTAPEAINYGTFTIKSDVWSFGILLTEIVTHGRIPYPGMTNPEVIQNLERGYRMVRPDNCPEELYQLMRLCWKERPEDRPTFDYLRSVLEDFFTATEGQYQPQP", "type": "functional"}, "Focal adhesion kinase 1": {"molecular_target": "Focal adhesion kinase 1 (Homo sapiens, UniProt Q05397)", "type": "functional"}},
  "note": "Calls of active or inactive are those of the source.",
  "data": [
    {"smiles": "O=C(CSc1nnc(Cc2cccs2)n1Cc1ccco1)Nc1ccc(Br)cc1", "values": [
      {"measurement": "EC50", "setting": "[1]", "result": "3.12 µM (active)"},
      {"measurement": "EC50", "setting": "[2]", "result": "0.009 µM (active)"}
    ]},
    {"smiles": "O=C(O)c1ccccc1Nc1ccc([N+](=O)[O-])c2nonc12", "values": [
      {"measurement": "EC50", "setting": "Insulin-degrading enzyme [3]", "result": "> 54.7 µM (inactive)"},
      {"measurement": "EC50", "setting": "HEK293 [4]", "result": "> 54.7 µM (inactive)"},
      {"measurement": "EC50", "setting": "Insulin-degrading enzyme [5]", "result": "> 54.7 µM (inactive)"},
      {"measurement": "IC50", "setting": "HEK293 [6]", "result": "> 89.2 µM (inactive)"}
    ]},
    {"smiles": "CCOC(=O)c1c(CNCCN(CC)CC)n(C)c2cc(Br)c(OC)cc12", "values": [
      {"measurement": "AC50", "setting": "[7]", "result": "0.376 µM (active)"}
    ]},
    {"smiles": "COc1cc(/C=C2/SC(=S)N(Cc3ccccc3)C2=O)cc(OC)c1O", "values": [
      {"measurement": "IC50", "setting": "Beta-lactamase [8]", "result": "> 59.6 µM (inactive)"},
      {"measurement": "IC50", "setting": "Prothrombin", "result": "2.9 µM (active)"},
      {"measurement": "IC50", "setting": "[9]", "result": "> 100 µM (inactive)"},
      {"measurement": "IC50", "setting": "[10]", "result": "2.36 µM (active)"},
      {"measurement": "EC50", "setting": "[11]", "result": "27.8 µM (inconclusive)"},
      {"measurement": "EC50", "setting": "[12]", "result": "31.9 µM (active)"},
      {"measurement": "IC50", "setting": "Beta-lactamase [13]", "result": "> 59.6 µM (inactive)"}
    ]},
    {"smiles": "O=[N+]([O-])c1cnc2ccccc2c1Sc1ccccc1", "values": [
      {"measurement": "AC50", "setting": "[14]", "result": "39.2 µM (active)"}
    ]},
    {"smiles": "CC(=O)c1c(C)[nH]c(C(=O)CN(C)CC(=O)Nc2ccc(F)c(F)c2F)c1C", "values": [
      {"measurement": "IC50", "setting": "[15]", "result": "> 99 µM (inactive)"},
      {"measurement": "IC50", "setting": "[16]", "result": "> 99 µM (inactive)"}
    ]},
    {"smiles": "Cn1cc(C(CC(=O)c2ccc(C3CCCCC3)cc2)C(=O)O)c2ccccc21", "note": "(stereo unspecified)", "values": [
      {"measurement": "IC50", "setting": "[17]", "result": "69.6 µM (active)"}
    ]},
    {"smiles": "CC(C)CC(CO)NC(=O)c1cccc(-n2nc(C(C)(C)C)cc2NC(=O)Nc2cccc3ccccc23)c1", "note": "(stereo unspecified)", "values": [
      {"measurement": "Ki", "setting": "[18]", "result": "0.631 µM (active)"},
      {"measurement": "Ki", "setting": "[19]", "result": "> 6.31 µM (inactive)"},
      {"measurement": "Ki", "setting": "[20]", "result": "> 6.31 µM (inactive)"},
      {"measurement": "Ki", "setting": "[21]", "result": "> 7.94 µM (inactive)"},
      {"measurement": "Ki", "setting": "[22]", "result": "> 6.31 µM (inactive)"},
      {"measurement": "Ki", "setting": "[23]", "result": "> 6.31 µM (inactive)"},
      {"measurement": "Ki", "setting": "[24]", "result": "> 6.31 µM (inactive)"},
      {"measurement": "Ki", "setting": "Focal adhesion kinase 1", "result": "> 6.31 µM (inactive)"}
    ]}
  ]
}
